This series in a line: Slurry study evaluated by XRPD. The format is physicochemical. The conditions noted are these: slurry started from Form B; Form C occurred at 30 min; at 60 min.

We go through 1 compound from patent US20250320215A1, “SALTS OF N-[4-(4-[[2-(DIMETHYLAMINO)ETHYL]AMINO]-3-METHYL-1H-PYRAZOLO[3,4-D]PYRIMIDIN-6-YL)-2-FLUOROPHENYL]-2,5-DIFLUOROBENZENESULFONAMIDE AND CRYSTALLINE FORMS THEREOF” (THRYV THERAPEUTICS INC, priority 2022, published 2025).

For `Cc1n[nH]c2nc(-c3ccc(NS(=O)(=O)c4cc(F)ccc4F)c(F)c3)nc(NCCN(C)C)c12` [Compound 4 Form C], the “form conversion during slurry in THF” value is “converted to di-mesylate Form D completely”.
